Our source for the inhibition, Activity and IC50 values is ChEMBL document CHEMBL5625219, “Design, synthesis fusidic acid derivatives alleviate acute lung injury via inhibiting MAPK/NF-κB/NLRP3 pathway” (Eur J Med Chem, 2023).

Series [1] deals with Mus musculus. In words: In vivo inhibition of NFkappaB activation in LPS-induced BALB/c mouse model of […] assessed as inhibition of IkappaBalpha degradation at 10 mg/kg, po preadministered with compound for 3 days followed by LPS stimulation for 6 hrs after 1 hrs compound administration on day 3 by Western blot analysis. The class given is functional, organism-based. As to conditions: time 3.0 day.

Series [2] relates to Mus musculus. In words: Anti-inflammatory activity in LPS-induced BALB/c mouse model of […] assessed as inhibition of LPS-induced increase in TNF-alpha expression in serum at 10 mg/kg, po preadministered with compound for 3 days followed by LPS stimulation for 6 hrs after 1 hrs compound administration on day 3 by ELISA. The class given is functional, organism-based. As to conditions: time 3.0 day. On the technique in general: ELISA stands for enzyme-linked immunosorbent assay.

In series [3] the test system is Mus musculus. In words: In vivo inhibition of NFkappaB activation in LPS-induced BALB/c mouse model of […] assessed as inhibition of NFkappaB degradation at 10 mg/kg, po preadministered with compound for 3 days followed by LPS stimulation for 6 hrs after 1 hrs compound administration on day 3 by Western blot analysis. The class given is functional, organism-based. As to conditions: time 3.0 day. (In western blotting, separated proteins are transferred to a membrane and probed.)

Series [4] has as its system Mus musculus. In words: Anti-inflammatory activity in LPS-induced BALB/c mouse model of […] assessed as inhibition of LPS-induced increase in IL-6 expression in serum at 10 mg/kg, po preadministered with compound for 3 days followed by LPS stimulation for 6 hrs after 1 hrs compound administration on day 3 by ELISA. The class given is functional, organism-based. As to conditions: time 3.0 day.

Series [5] concerns Mus musculus. The series can be described thus: Anti-inflammatory activity in LPS-induced BALB/c mouse model of […] assessed as inhibition of LPS-induced increase in NO production in serum at 10 mg/kg, po preadministered with compound for 3 days followed by LPS stimulation for 6 hrs after 1 hrs compound administration on day 3 by Griess reagent based method. The class given is functional, organism-based. As to conditions: time 3.0 day. (In general: The Griess reaction detects nitrite, a stable product of nitric oxide.)

The test system of series [6] is Mus musculus. The series can be described thus: Anti-inflammatory activity in LPS-induced BALB/c mouse model of […] assessed as inhibition of LPS-induced increase in IL-6 expression in BALF at 10 mg/kg, po preadministered with compound for 3 days followed by LPS stimulation for 6 hrs after 1 hrs compound administration on day 3 by ELISA. Format: functional, organism-based. Conditions: time 3.0 day.

The subject of series [7] is Mus musculus. The series can be described thus: Anti-inflammatory activity in LPS-induced BALB/c mouse model of […] assessed as attenuation of inflammatory cell infiltration in lungs at 10 mg/kg, po preadministered with compound for 3 days followed by LPS stimulation for 6 hrs after 1 hrs compound administration on day 3 by H&E staining based analysis. The class given is functional, organism-based. As to conditions: time 3.0 day.

The subject of series [8] is Mus musculus. The series can be described thus: Anti-inflammatory activity in LPS-induced BALB/c mouse model of […] assessed as attenuation of lung alveolar hemorrhage at 10 mg/kg, po preadministered with compound for 3 days followed by LPS stimulation for 6 hrs after 1 hrs compound administration on day 3 by H&E staining based analysis. The class given is functional, organism-based. Conditions: time 3.0 day.

Series [9] relates to Mus musculus. The series can be described thus: Anti-inflammatory activity in LPS-induced BALB/c mouse model of […] assessed as inhibition of LPS-induced increase in TNF-alpha expression in BALF at 10 mg/kg, po preadministered with compound for 3 days followed by LPS stimulation for 6 hrs after 1 hrs compound administration on day 3 by ELISA. Format: functional, organism-based. As to conditions: time 3.0 day.

For series [10], the system named is Mus musculus. The series can be described thus: Anti-inflammatory activity in LPS-induced BALB/c mouse model of […] assessed as inhibition of LPS-induced increase in lung W/D ratio at 10 mg/kg, po preadministered with compound for 3 days followed by LPS stimulation for 6 hrs after 1 hrs compound administration on day 3. Format: functional, organism-based. Conditions: time 3.0 day.

In series [11] the test system is Mus musculus. In words: Anti-inflammatory activity in LPS-induced BALB/c mouse model of […] assessed as inhibition of LPS-induced increase in NO production in BALF at 10 mg/kg, po preadministered with compound for 3 days followed by LPS stimulation for 6 hrs after 1 hrs compound administration on day 3 by Griess reagent based method. The class given is functional, organism-based. Conditions: time 3.0 day.

The subject of series [12] is RAW264.7. In words: Cytotoxicity against mouse RAW264.7 cells assessed as reduction in cell viability at 30 uM incubated for 24 hrs by MTT assay relative to control. Format: toxicity, cell-based. As to conditions: raw264.7, 24 h.
A short description of series [13]: Cytotoxicity against mouse RAW264.7 cells assessed as inhibition of cell growth incubated for 24 hrs by MTT assay. Format: toxicity, cell-based.

Activity calls are given as the source filed them. The calls are words filed in the database; no cut-off is given here.

In the case of `Cc1ccc(-c2cc(C(F)(F)F)nn2-c2ccc(S(N)(=O)=O)cc2)cc1`, the inhibition entry in series [1] and in [3] was “Active” each time. Besides, the result in series [2], in series [4], in [5], in series [6], in [7] and in [8] was Active. For the same compound, the result in series [9], in series [10] and in [11] was Active.

As a reminder, the IC50 is the concentration needed to halve the response being measured. Take `COc1ccc(-c2nnc(COC(=O)/C(CCC=C(C)C)=C3\[C@@H](OC(C)=O)C[C@@]4(C)[C@H]3C[C@@H](O)[C@H]3[C@@]5(C)CC[C@@H](O)[C@@H](C)[C@@H]5CC[C@@]34C)o2)cc1`: in series [12], the Activity worked out at 101.7%. Further, in series [13], the IC50 at 24 h was found to be 114 µM.

Regarding `CC(=O)O[C@H]1C[C@@]2(C)[C@@H](C[C@@H](O)[C@H]3[C@@]4(C)CC[C@@H](O)[C@@H](C)[C@@H]4CC[C@@]32C)/C1=C(\CCC=C(C)C)C(=O)OCc1cc(-c2ccc(C)cc2)no1`, the Activity in series [12] was determined as 104.48%. In series [13], the IC50 at 24 h was determined as 75.9 µM.

For `COc1cc(-n2cc(COC(=O)/C(CCC=C(C)C)=C3\[C@@H](OC(C)=O)C[C@@]4(C)[C@H]3C[C@@H](O)[C@H]3[C@@]5(C)CC[C@@H](O)[C@@H](C)[C@@H]5CC[C@@]34C)nn2)cc(OC)c1OC`, the Activity in series [12] was determined as 98.92%. Further, in series [13], the IC50 at 24 h is 120 µM.

With `COc1cc(-c2cc(COC(=O)/C(CCC=C(C)C)=C3\[C@@H](OC(C)=O)C[C@@]4(C)[C@H]3C[C@@H](O)[C@H]3[C@@]5(C)CC[C@@H](O)[C@@H](C)[C@@H]5CC[C@@]34C)on2)cc(OC)c1OC`, the Activity in [12] is 95.67%. For the same compound, the IC50 at 24 h in [13] was 50.6 µM.

For `CC(=O)O[C@H]1C[C@@]2(C)[C@@H](C[C@@H](O)[C@H]3[C@@]4(C)CC[C@@H](O)[C@@H](C)[C@@H]4CC[C@@]32C)/C1=C(\CCC=C(C)C)C(=O)OCc1cn(Cc2ccc([N+](=O)[O-])cc2)nn1`, in [12], the Activity is given as 101.85%. In series [13], the IC50 at 24 h amounted to 56.8 µM.

`CC(=O)O[C@H]1C[C@@]2(C)[C@@H](C[C@@H](O)[C@H]3[C@@]4(C)CC[C@@H](O)[C@@H](C)[C@@H]4CC[C@@]32C)/C1=C(\CCC=C(C)C)C(=O)OCc1cn(Cc2ccc(Cl)cc2)nn1`: the Activity in [12] turned out to be 90.57%. Further, the IC50 at 24 h in [13] was determined as 72.5 µM.

In the case of `CC(=O)O[C@H]1C[C@@]2(C)[C@@H](C[C@@H](O)[C@H]3[C@@]4(C)CC[C@@H](O)[C@@H](C)[C@@H]4CC[C@@]32C)/C1=C(\CCC=C(C)C)C(=O)OCc1cn(-c2ccc(Cl)cc2)nn1`, the Activity in series [12] is listed as 101.39%. The IC50 at 24 h in series [13] stood at 119 µM.

With `CC(=O)O[C@H]1C[C@@]2(C)[C@@H](C[C@@H](O)[C@H]3[C@@]4(C)CC[C@@H](O)[C@@H](C)[C@@H]4CC[C@@]32C)/C1=C(\CCC=C(C)C)C(=O)OCc1cc(-c2ccc(Br)cc2)no1`, in [12], the Activity was 96.29%. Also, the half-maximal inhibitory concentration (IC50) at 24 h in [13] worked out at 40.9 µM.

As for `CC(=O)O[C@H]1C[C@@]2(C)[C@@H](C[C@@H](O)[C@H]3[C@@]4(C)CC[C@@H](O)[C@@H](C)[C@@H]4CC[C@@]32C)/C1=C(\CCC=C(C)C)C(=O)O` [FUSIDIC ACID], the inhibition result in [1] and in series [3] was “Active” each time. In addition, the result in series [2], in [4], in [5], in series [6], in series [7] and in series [8] was Active. In addition, the outcome in series [9], in series [10] and in [11] was Active. Besides, the Activity in series [12] came out at 101.08%. In addition, in [13], the IC50 at 24 h was determined as 61.3 µM.

As for `CC(=O)O[C@H]1C[C@@]2(C)[C@@H](C[C@@H](O)[C@H]3[C@@]4(C)CC[C@@H](O)[C@@H](C)[C@@H]4CC[C@@]32C)/C1=C(\CCC=C(C)C)C(=O)OCc1cc(-c2ccc(Cl)c(Cl)c2)no1`, the Activity in [12] came to 94.05%. The IC50 at 24 h in series [13] was 44.6 µM.

For `CC(=O)O[C@H]1C[C@@]2(C)[C@@H](C[C@@H](O)[C@H]3[C@@]4(C)CC[C@@H](O)[C@@H](C)[C@@H]4CC[C@@]32C)/C1=C(\CCC=C(C)C)C(=O)OCc1nnc(-c2ccc([N+](=O)[O-])cc2)o1`, in series [12], the Activity is 103.17%. The half-inhibitory concentration (IC50) at 24 h in series [13] was 100 µM.
